Consider seven compounds from patent US20160219881A1, “HERBICIDALLY ACTIVE 2-HALOGEN-4-ALKYNYL-PHENYL-PYRAZOLIDINE-DIONE OR PYRROLIDINE-DIONE DERIVATIVES” (SYNGENTA LIMITED, priority 2013, published 2016).

Type in all cases: in vivo
Assay [1] has as its system Amaranthus retroflexus (AMARE). Put plainly: Test 1A glasshouse assay, pre-emergence herbicidal activity. The following applies: 312 h, 13 days after application, read-out: Pre-Emergence Herbicidal Activity (% Phytotoxicity) AMARE. As to the method: (§1) Seeds of a variety of test species are sown in standard soil (usually sandy soil) in pots. After cultivation for one day (pre-emergence) or after 8 days cultivation (post-emergence) under controlled conditions in a glasshouse (at 24/16° C., day/night; 14 hours light; 65% humidity), the plants are sprayed with an aqueous spray solution derived from the formulation of the technical active ingredient (compound) in acetone/water (50:50) solution containing 0.5% Tween 20 (polyoxyethylene sorbitan monolaurate, CAS RN 9005-64-5). The test plants are then grown under controlled conditions in a glasshouse (at 24/16° C., day/night; 14 hours light; 65% humidity) and watered twice daily. 13 days after application of the test compounds, for pre- and post-emergence, the test is evaluated visually for percentage phytotoxicity to each plant (where 100%=total damage to plant; 0%=no damage to plant).
(§2) Alopecurus myosuroides (ALOMY), Setaria faberi (SETFA), Echinochloa crus-galli (ECHCG), Amaranthus retroflexus (AMARE), and Abutilon theophasti Medik. (ABUTH, common English name “velvetleaf”). Of these, Alopecurus myosuroides (ALOMY), Setaria faberi (SETFA), and Echinochloa crus-galli (ECHCG) are grassy monocotyledonous weeds.

For assay [2], the system named is Setaria faberi (SETFA). The description is as above. To be noted: 312 h, 13 days after application, read-out: Pre-Emergence Herbicidal Activity (% Phytotoxicity) SET FA. On the procedure: as §1, §2
In assay [3] the test system is Alopecurus myosuroides (ALOMY). The description is as above. To be noted: 312 h, 13 days after application, read-out: Pre-Emergence Herbicidal Activity (% Phytotoxicity) ALOMY. On the procedure:
as §1, §2
Lolium perenne (LOLPE), Triticum aestivum (TRZAW, winter wheat), Alopecurus myosuroides (ALOMY), Echinochloa crus-galli (ECHCG), and Avena fatua (AVEFA). All these are grassy monocotyledonous weeds and/or (for wheat) grassy crops.

Assay [4] deals with Echinochloa crus-galli (ECHCG). Described as above. To be noted: 312 h, 13 days after application, read-out: Pre-Emergence Herbicidal Activity (% Phytotoxicity) ECHCG. As to the method:
as §1
(§3) Alopecurus myosuroides (ALOMY), Setaria faberi (SETFA), Echinochloa crus-galli (ECHCG), Amaranthus retroflexus (AMARE), and Abutilon theophasti Medik. (ABUTH, common English name “velvetleaf”). Of these, Alopecurus myosuroides (ALOMY), Setaria faberi (SETFA), and Echinochloa crus-galli (ECHCG) are grassy monocotyledonous weeds. […]

The test system of assay [5] is Abutilon theophasti Medik. (ABUTH). In words: Test 1A glasshouse assay, post-emergence herbicidal activity. The following applies: 312 h, 13 days after application, read-out: Post-Emergence Herbicidal Activity (% Phytotoxicity) ABUTH. As to the method:
as §1, §2

The subject of assay [6] is Amaranthus retroflexus (AMARE). Described as above. To be noted: 312 h, 13 days after application, read-out: Post-Emergence Herbicidal Activity (% Phytotoxicity) AMARE. As to the method: as §1, §2
Assay [7] has as its system Setaria faberi (SETFA). The description is as above. To be noted: 312 h, 13 days after application, read-out: Post-Emergence Herbicidal Activity (% Phytotoxicity) SET FA. As to the method: as §1, §2
Assay [8] deals with Alopecurus myosuroides (ALOMY). Described as above. To be noted: 312 h, 13 days after application, read-out: Post-Emergence Herbicidal Activity (% Phytotoxicity) ALOMY. On the procedure:
as §1, §3

Assay [9] concerns Echinochloa crus-galli (ECHCG). Described as above. To be noted: 312 h, 13 days after application, read-out: Post-Emergence Herbicidal Activity (% Phytotoxicity) ECHCG. On the procedure:
as §1, §3

Assay [10] has as its system Abutilon theophasti Medik. (ABUTH). In words: Test 1A glasshouse assay, pre-emergence herbicidal activity. To be noted: 312 h, 13 days after application, read-out: Pre-Emergence Herbicidal Activity (% Phytotoxicity) ABUTH. As to the method: as §1, §2

Take `CC#Cc1ccc(C2C(=O)N(C)N(C)C2=O)c(C)c1` [Compound A2]: the inhibition at 250 g/ha in assay [1] turned out to be 10%; with Setaria faberi (SETFA) [2] it was 90%; in assay [3], 80%; in assay [4], 70%; in [5] it was 10%; in assay [6], 100%. The inhibition at 250 g/ha in the assay with Setaria faberi (SETFA) [7] came out at 80%; in [8] it was 70%; in assay [9] it was 90%.
Take `CC#Cc1cc(OC)c(C2C(=O)N(C)N(C)C2=O)c(OC)c1` [Compound A5]: the inhibition at 250 g/ha in assay [10] was determined as 0%; in [1], 10%; in the assay with Setaria faberi (SETFA) [2], 100%; in assay [3] it was 90%; in assay [4], 90%; in assay [5], 0%. The inhibition at 250 g/ha was 0% in assay [6], 90% in the assay with Setaria faberi (SETFA) [7], 90% in assay [8] and 100% in assay [9]. For the same compound, the inhibition at 30 g/ha in assay [5] was determined as 0%; in assay [6], 0%; with Setaria faberi (SETFA) [7], 80%; in [8], 70%; in assay [9] it was 90%.
With `CC#Cc1cc(C)c(C2C(=O)N(CC)N(CC)C2=O)c(C)c1` [Compound A6], the inhibition at 250 g/ha in [10] turned out to be 30%; in [1], 70%; with Setaria faberi (SETFA) [2] it was 70%; in assay [3], 50%; in assay [4], 80%; in [5], 30%. Further, the inhibition at 250 g/ha in assay [6] worked out at 30%; with Setaria faberi (SETFA) [7], 80%; in [8] it was 80%; in assay [9], 80%. Besides, the inhibition at 30 g/ha was found to be 30% in [5]; 0% in assay [6]; 70% with Setaria faberi (SETFA) [7]; 20% in assay [8]; 40% in assay [9].
On to `CC#Cc1cc(C)c(C2C(=O)N3CCCCN3C2=O)c(C)c1` [Compound A18], for which the inhibition at 30 g/ha in [10] came to 40%; in assay [1], 20%; with Setaria faberi (SETFA) [2] it was 50%; in assay [3], 60%; in assay [4], 60%; in assay [5], 70%. Further, the inhibition at 30 g/ha in [6] was 40%; with Setaria faberi (SETFA) [7], 70%; in assay [8] it was 50%; in assay [9], 20%. Also, the inhibition at 250 g/ha in assay [10] was determined as 50%; in assay [1] it was 40%; in the assay on Setaria faberi (SETFA) [2], 90%; in assay [3], 100%; in assay [4], 90%; in assay [5] it was 80%. Besides, the inhibition at 250 g/ha in assay [6] amounted to 80%; with Setaria faberi (SETFA) [7], 90%; in assay [8], 80%; in assay [9], 100%.
Turning to `CC#Cc1cc(C)c(C2C(=O)N3CCOCCN3C2=O)c(C)c1` [Compound A28], the inhibition at 30 g/ha in [10] was found to be 10%; in assay [1], 20%; in the assay on Setaria faberi (SETFA) [2] it was 50%; in assay [3], 70%; in assay [4] it was 80%; in [5] it was 60%. The inhibition at 30 g/ha in assay [6] came out at 10%; with Setaria faberi (SETFA) [7], 70%; in assay [8] it was 60%; in assay [9], 80%. Further, the inhibition at 250 g/ha in [10] is 10%; in [1], 30%; in the assay on Setaria faberi (SETFA) [2], 100%; in assay [3] it was 100%; in [4], 100%; in [5] it was 70%. Besides, the inhibition at 250 g/ha turned out to be 30% in [6], 100% in the assay with Setaria faberi (SETFA) [7], 90% in assay [8] and 100% in [9].
As to `CC#Cc1cc(C)c(-c2c(OC(C)=O)n(C)n(C)c2=O)c(C)c1` [Compound P2], the inhibition at 250 g/ha is 0% in assay [10]; 70% in assay [1]; 90% in the assay with Setaria faberi (SETFA) [2]; 90% in [3]; 100% in assay [4]; 60% in assay [5]. The inhibition at 250 g/ha is 30% in [6], 90% in the assay on Setaria faberi (SETFA) [7], 90% in [8] and 100% in assay [9]. The inhibition at 30 g/ha stood at 10% in assay [5]; 0% in assay [6]; 40% in the assay on Setaria faberi (SETFA) [7]; 40% in [8]; 80% in [9].
Regarding `CC#Cc1cc(C)c(-c2c(OC(=O)C(C)(C)C)n3n(c2=O)CCCCC3)c(C)c1` [Compound P3, [2-(2,6-dimethyl-4-prop-1-ynyl-phenyl)-1-oxo-6,7,8,9-tetrahydro-5H-pyrazolo[1,2-a]diazepin-3-yl]2,2-dimethylpropanoate], the inhibition at 250 g/ha in assay [10] stood at 10%; in assay [1] it was 20%; in the assay on Setaria faberi (SETFA) [2] it was 70%; in [3] it was 20%; in [4], 20%; in assay [5] it was 0%. Moreover, the inhibition at 250 g/ha in the assay with Setaria faberi (SETFA) [7] was determined as 70%; in assay [8] it was 50%; in assay [9], 100%. For the same compound, the inhibition at 30 g/ha turned out to be 10% in [5]; 0% in assay [6]; 20% in the assay with Setaria faberi (SETFA) [7]; 40% in [8]; 60% in assay [9].
